pIC50: −log10 of the molar value.
Key:
Axl = target: T1, Axl (Homo sapiens, UniProt P30530); experiment: Biochemical potency, HTRF KinEASE-TK kinase assay; design: purchased Invitrogen; conditions: 5 nM AXL, 700 μM ATP
T1 sequence (P30530 26-894): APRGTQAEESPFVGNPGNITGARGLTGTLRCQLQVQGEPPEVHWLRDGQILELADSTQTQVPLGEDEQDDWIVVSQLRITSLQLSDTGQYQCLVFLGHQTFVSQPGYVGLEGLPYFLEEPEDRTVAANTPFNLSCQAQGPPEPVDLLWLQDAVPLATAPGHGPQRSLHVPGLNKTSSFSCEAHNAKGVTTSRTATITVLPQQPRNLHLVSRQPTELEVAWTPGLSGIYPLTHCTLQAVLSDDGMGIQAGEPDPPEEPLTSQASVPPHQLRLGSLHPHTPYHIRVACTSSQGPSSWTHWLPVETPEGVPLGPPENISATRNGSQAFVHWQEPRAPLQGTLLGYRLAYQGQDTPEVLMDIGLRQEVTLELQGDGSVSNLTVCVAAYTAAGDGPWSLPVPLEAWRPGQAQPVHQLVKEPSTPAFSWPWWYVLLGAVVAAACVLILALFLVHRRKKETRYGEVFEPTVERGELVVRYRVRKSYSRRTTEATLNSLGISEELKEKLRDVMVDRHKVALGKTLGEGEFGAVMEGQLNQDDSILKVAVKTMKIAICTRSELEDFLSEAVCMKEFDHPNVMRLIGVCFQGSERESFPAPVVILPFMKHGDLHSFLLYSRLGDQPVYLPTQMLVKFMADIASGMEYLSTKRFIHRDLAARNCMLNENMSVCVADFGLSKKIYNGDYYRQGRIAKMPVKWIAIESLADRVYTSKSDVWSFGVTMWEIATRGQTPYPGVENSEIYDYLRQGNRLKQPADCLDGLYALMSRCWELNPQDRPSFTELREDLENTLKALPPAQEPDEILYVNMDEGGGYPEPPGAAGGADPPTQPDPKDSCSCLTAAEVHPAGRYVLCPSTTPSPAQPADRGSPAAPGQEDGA
Protocol: Measurement of Biochemical Compound Potency of Axl Inhibitors
Purified recombinant human AXL, TYRO3 and MER proteins were purchased from Invitrogen™. 10 nM AXL, 2 nM TYRO3 or MER were incubated with varying concentrations of compounds in 50 mM HEPES, pH 7.4, 10 mM MgCl2, 0.01% BSA, 1 mM DTT and 2% DMSO in a total volume of 20 μl in a 384-well microplate (Corning™ #3640) at RT for 1 h. The AXL, TYRO3 and MER enzymatic reaction was initiated by transferring 10 μl of enzyme and compound mixture into 10 μl of 1.6 μM TK Substrate-biotin (HTRF® KinEASE-TK kit, Cisbio) and 1400 μM ATP pre-incubated in 50 mM HEPES, pH 7.4, 10 mM MgCl2, 0.01% BSA, 1 mM DTT in a 384-well microplate (Corning™ #3640) at RT, giving the final reaction conditions: 5 nM AXL, 1 nM TYRO3 or MER, 800 nM TK Substrate-biotin and 700 μM ATP in 50 mM HEPES, pH 7.4, 10 mM MgCl2, 0.01% BSA, 1 mM DTT and 1% DMSO with varying concentrations of compounds. Following 2 h incubation at RT, the AXL, TYRO3 and MER enzymatic reaction was stopped by transfer of 10 μl of reaction into 10 μl of detection mix (400 nM Streptavidin-XL665, 200-fold dilution TK Antibody-Cryptate and detection buffer, HTRF® KinEASE-TK kit, Cisbio) in a white 384-well microplate (Perkin Elmer, OptiPlate 384). After 1 h incubation at RT, the plate was put into a plate reader (Evision) to read at 665/620 nm (acceptor/donor) for HTRF. The value of the DMSO blank (MIN inhibition=100% activity) was used as a negative control. The positive control was established by adding 5 μl of enzyme and DMSO mixture into 10 μl of detection mix followed by addition of 5 μl of TK Substrate-biotin and ATP mixture (MAX inhibition=0% activity). To calculate the percent activity, Equation 1 was used. Ratio665/620 is the value at a given compound concentration: […]

p-AXL = target: T2, p-AXL (Homo sapiens, UniProt P30530); experiment: Axl phosphorylation inhibition ELISA in HEK293T cells transfected with NanoLuc-tagged AXL; type: cell-based; conditions: 1 h compound incubation, media (OptiMEM)
T2 construct: expressed in transfected cells; host or cells: HEK293T
T2 sequence (P30530 26-894): T1 sequence (P30530 26-894)
Protocol: [formula] Measurement of Axl Phosphorylation Inhibition
The dose-response assays were performed in S-Bio PrimeSurface® 3D culture: Ultra-low Attachment Plates: 384 well, U bottom (#MS-9384UZ) containing 400 nL of 22 serial 2-fold compound dilutions using Bravo and Echo. ELISA assay was performed on Pierce™ streptavidin coated high capacity 384-well white plates (Thermofisher Cat #15505). The plates were coated overnight at 4° C. with 50 μl/well of biotinlyated phospho-tyrosine mouse mAb (Cell Signaling Technology, 9417s).
HEK293T cells were grown in DMEM containing 10% FBS, 1% Pen/Strep, 1% G-Max. A day before the assay, cells were transiently transfected with 6.8 μg of NanoLuc-tagged AXL plasmid DNA and 8 μg of carrier DNA using FuGENE® HD Transfection Reagent (Promega) according to manufacturer's instructions. On the day of the assay, transfected cells were harvested and resuspended in OptiMEM. 70,000 cells/well were added to the compounds containing assay plates. After a gentle mix and a short spin, the plates were incubated at 37° C. After 1 h, the cells were lysed followed by a brief centrifugation and 30 min of shaking at 300 rpm. Meanwhile, the antibody coated plates were brought to room temperature and then were washed ten times in PBS with 0.05% Tween 20 (ELISA-wash buffer). 50 μl/well of cell lysate was transferred to the ELISA plates and shaken for 2 hours. After washing again with the ELISA wash buffer, the samples were diluted with 25 μl of PBS. The captured NanoLuc tagged p-AXL was detected using Nano-Glo® Luciferase Assay System (Promega) and manufacturer's instruction. The luminescence signal was measured using Envision plate reader. IC50 values were determined by fitting the data to a standard 4-parameter logistic equation.

pIC50 (Axl)	pIC50 (p-AXL)	SMILES
> 7.00	> 7.00	Cc1cc(F)cnc1-c1ccc(-c2c[nH]c3ncc(-c4ccc5c(c4)CC[C@@H](N4C6COCC4C6)CC5)cc23)nc1 [Example 35, 6-[(7S)-3-[3-[5-(5-Fluoro-3-methylpyridin-2-yl)pyridin-2-yl]-1H-pyrrolo[2,3-b]pyridin-5-yl]-6,7,8,9-tetrahydro-5H-benzo[7]annulen-7-yl]-3-oxa-6-azabicyclo[3.1.1]heptane]
> 7.00	< 6.00	Cc1cccnc1-c1ccc(-c2c[nH]c3nnc(-c4ccc5c(c4)CC[C@@H](N4C6COCC4C6)CC5)cc23)cc1 [Example 36, 6-[(7S)-3-[5-[4-(3-Methylpyridin-2-yl)phenyl]-7H-pyrrolo[2,3-c]pyridazin-3-yl]-6,7,8,9-tetrahydro-5H-benzo[7]annulen-7-yl]-3-oxa-6-azabicyclo[3.1.1]heptane]
> 7.00	> 7.00	Cc1cccnc1-c1cnc(-c2c[nH]c3ncc(-c4ccc5c(c4)CC[C@@H](N4C6COCC4C6)CC5)cc23)nc1 [Example 37, 6-[(7S)-3-[3-[5-(3-Methylpyridin-2-yl)pyrimidin-2-yl]-1H-pyrrolo[2,3-b]pyridin-5-yl]-6,7,8,9-tetrahydro-5H-benzo[7]annulen-7-yl]-3-oxa-6-azabicyclo[3.1.1]heptane]
> 7.00	> 7.00	Cc1cccnc1-c1ncc(-c2c[nH]c3ncc(-c4ccc5c(c4)CC[C@@H](N4C6COCC4C6)CC5)cc23)cn1 [Example 38, 6-[(7S)-3-[3-[2-(3-Methylpyridin-2-yl)pyrimidin-5-yl]-1H-pyrrolo[2,3-b]pyridin-5-yl]-6,7,8,9-tetrahydro-5H-benzo[7]annulen-7-yl]-3-oxa-6-azabicyclo[3.1.1]heptane]
> 7.00	> 7.00	Cn1c(-c2ccc(-c3c[nH]c4ncc(-c5ccc6c(c5)CC[C@@H](N5C7COCC5C7)CC6)cc34)cc2)cccc1=O [Example 39, 1-Methyl-6-[4-[5-[(7S)-7-(3-oxa-6-azabicyclo[3.1.1]heptan-6-yl)-6,7,8,9-tetrahydro-5H-benzo[7]annulen-3-yl]-1H-pyrrolo[2,3-b]pyridin-3-yl]phenyl]pyridin-2-one]
> 7.00	6.00 to 7.00	Cc1cnc(-c2ccc(-c3n[nH]c4ncc(-c5ccc6c(c5)CC[C@@](C)(N5CCC[C@H]5C)CC6)cc34)nc2)c(C)n1 [Example 60, 3,5-Dimethyl-2-(6-{5-[(7S)-7-methyl-7-[(2R)-2-methylpyrrolidin-1-yl]-6,7,8,9-tetrahydro-5H-benzo[7]annulen-2-yl]-1H-pyrazolo[3,4-b]pyridin-3-yl}pyridin-3-yl)pyrazine]
> 7.00	> 7.00	Cc1cnc(C)c(-c2ccc(-c3n[nH]c4ncc(-c5ccc6c(c5)CC[C@@](C)(N5CCC[C@H]5C)CC6)cc34)nc2)n1 [Example 61, 2,5-Dimethyl-3-(6-{5-[(7S)-7-methyl-7-[(2R)-2-methylpyrrolidin-1-yl]-6,7,8,9-tetrahydro-5H-benzo[7]annulen-2-yl]-1H-pyrazolo[3,4-b]pyridin-3-yl}pyridin-3-yl)pyrazine]
> 7.00	> 7.00	Cc1cnc(C)c(-c2ccc(-c3c[nH]c4ncc(-c5ccc6c(c5)CC[C@@H](N5C[C@@H]7C[C@H]5CO7)CC6)cc34)cc2)n1 [Example 62, (1S,4S)-5-[(7S)-2-{3-[4-(3,6-Dimethylpyrazin-2-yl)phenyl]-1H-pyrrolo[2,3-b]pyridin-5-yl}-6,7,8,9-tetrahydro-5H-benzo[7]annulen-7-yl]-2-oxa-5-azabicyclo[2.2.1]heptane]
> 7.00	> 7.00	COC[C@H]1CCN([C@H]2CCc3ccc(-c4cnc5[nH]cc(-c6ccc(-c7nc(C)cnc7C)cc6)c5c4)cc3CC2)C1 [Example 63, 3-(4-{5-[(7S)-7-[(3S)-3-(Methoxymethyl)pyrrolidin-1-yl]-6,7,8,9-tetrahydro-5H-benzo[7]annulen-2-yl]-1H-pyrrolo[2,3-b]pyridin-3-yl}phenyl)-2,5-dimethylpyrazine]
